One data set deals with prostate cancer cells. Nature of the data set: Inhibitory activity on a variety of prostate cancer cells (Table 1). It is filed as cell-based, human. Particulars: structure-activity statements on Table 1. The protocol: (§1) All prostate cancer cells were cultured with a RPMI-1640 medium containing 10% calf serum, 100 units of penicillin per milliliter and 100 µg/mL of streptomycin in a constant temperature incubator containing 5% carbon dioxide at a saturated humidity of 37° C.
(§2) Cells in the logarithmic phase of growth were taken and cultured in 96-well plates for 24 hours (5×10^3 cells/well), then treated with different concentrations of the compounds to be tested, and incubated by MTT method for 4 hours. The supernatant was removed by centrifugation, the MTT crystals were dissolved by adding DMSO, and the absorbance value was measured by an enzyme-linked immunosorbent assay at a wavelength of 570 nm. The cytotoxic activity of the compounds to be tested on cancer cells was expressed as IC50.

For a further data set, the system named is Vcap-CRPC. Nature of the data set: Cytotoxic activity test (MTT) on Vcap-CRPC prostate cancer cells. It is filed as cell-based, human. The following applies: read-out: Prostate cancer cells IC50 Vcap-CRPC. As to the method: as §1, §2
The subject of another data set is C4-2B. The data set is described as follows: Cytotoxic activity test (MTT) on C4-2B prostate cancer cells. The following applies: C4-2B cells. It is filed as cell-based, human. The protocol: as §1, §2
The next data set deals with RWPE-1. The data set is described as follows: Cytotoxic activity test (MTT) on normal human prostate cell RWPE-1. Format: cell-based. The protocol:
as §1, §2

The test system of a further data set is LNcap. The data set is described as follows: Cytotoxic activity test (MTT) on LNcap prostate cancer cells. Format: cell-based, human. Particulars: read-out: Prostate cancer cells IC50 LNcap. The protocol: as §1, §2
In another data set the test system is 22RV1. Nature of the data set: Cytotoxic activity test (MTT) on 22RV1 prostate cancer cells. Format: cell-based, human. The protocol:
as §1, §2

For another data set, the system named is C4-2B/ENZR. The data set is described as follows: Cytotoxic activity test (MTT) on C4-2B/ENZR prostate cancer cells. Format: cell-based, human. The following applies: C4-2B/ENZR cells. As to the method: as §1, §2
Data set [1] concerns 22Rv1 human prostate cancer cells. The data set is described as follows: Mice model for 22RV1 prostate cancer growth, intraperitoneal injection in combination with enzalutamide. Format: in vivo, nod-scid male mice. An excerpt:
(§3) First, a large number of 22RV1 cells were amplified. To ensure the success rate of tumor-bearing, the cell state needs to be adjusted to the optimal state. When the number of the cells was sufficient, the cells were digested and flushed twice with PBS buffer to remove fetal bovine serum (FBS) from the medium to reduce immune rejection. The cells were adjusted to 3000*10^4/mL after counting by a hemocytometer. Then 22Rv1 human prostate cancer cells […] were subcutaneously injected into a 4-5 weeks old nod-scid male mice with severe immunodeficiency.
When the tumor grew to about 100 mm^3, the mice were randomly divided into 4 groups to make sure that the average tumor volume was the same. […] The body weight of the mice and the length and width of the tumor were measured and recorded every 3 days. The subcutaneous tumors were taken and then photographed at the end of the experiment. The tumor volumes were calculated according to the equation: volume=length×width^2×π/6, and then counted. The experimental results are shown in FIG. 3A, FIG. 3B, FIG. 3C and FIG. 3D.

The test system is the same in data set [2]. The data set is described as follows: Mice model for 22RV1 prostate cancer growth, oral administration experiment. Format: in vivo, nod-scid male mice. Particulars: 22RV1 tumor-bearing mice.
From the text: as §3
When the tumor grew to a volume of about 100 mm^3, the mice were randomly divided into 3 groups to make sure that the average tumor volume was the same. The mice in the dosing group were orally gavaged with 0.5 mg/kg and 2 mg/kg of Compound YH-52 per day, and the mice in the control group were given the same volume of normal saline containing DMSO. The body weight of the mice and the length and width of the tumors were measured and recorded every 3 days. The subcutaneous tumors were taken and then photographed at the end of the experiment. The tumor volumes were calculated according to the equation: volume=length×width^2×π/6, and then counted. The experimental results are shown in FIG. 2A, FIG. 2B and FIG. 2C.

The mark [3] stands for this setting: normal human prostate cell RWPE-1, MTT, read-out: Normal cells RWPE-1 (IC50).
[4] abbreviates: 22RV1 cells, MTT, read-out: Prostate cancer cells IC50 22RV1.

This note sets out measurements from patent US12686686B2 (priority 2020, dated 2026).

Entries after “also recorded” stand apart in the source; their conditions may differ. Where two headings read alike, the source gives them in different places.

Consider `C=C(C)[C@@]12OC3(c4ccccc4)O[C@@H]1[C@@H]1[C@@H]4O[C@]4(COC(=O)CCCCCCCCCCCCCCC)[C@@H](O)[C@]4(O)C(=O)C(C)=C[C@H]4[C@@]1(O3)[C@H](C)[C@H]2OC(C)=O` [YH-5], for which, in the data set on prostate cancer cells, the “inhibitory activity on prostate cancer cells (in words)” value (shortened to “inhibitory activity”) was “significant decrease in activity”. Moreover, the IC50 was found to be 4660 nM with Vcap-CRPC (Vcap-CRPC cells, MTT); 904 nM in the data set with C4-2B; 72800 nM in the data set on RWPE-1 (setting [3]); 99.3 nM with LNcap (LNcap cells, MTT); 44500 nM with 22RV1 (setting [4]); 434 nM with C4-2B/ENZR.
Turning to `C=C(C)[C@@]12OC3(/C=C/C=C/CCCCC)O[C@@H]1[C@@H]1[C@@H]4O[C@]4(CO)[C@@H](O)[C@]4(O)C(=O)C(C)=C[C@H]4[C@@]1(O3)[C@H](C)[C@H]2OC(=O)c1ccccc1` [YH-16], the “inhibitory activity” value in the data set on prostate cancer cells is reported as “more cytotoxic”. In addition, the IC50 in the data set with Vcap-CRPC (Homo sapiens) was determined as 5.7 nM; in the data set on RWPE-1 (setting [3]) it was 9670 nM; in the data set on LNcap (Homo sapiens, LNCaP), 5.43 nM; in the data set on 22RV1 (Homo sapiens, 22Rv1, read-out: Prostate cancer cells IC50 22RV1) it was 33.2 nM.
As to `C=C(C)[C@@]12OC3(/C=C/C=C/CCCCC)O[C@@H]1[C@@H]1[C@@H]4O[C@]4(COC(=O)c4ccccc4)[C@@H](O)[C@]4(O)C(=O)C(C)=C[C@H]4[C@@]1(O3)[C@H](C)[C@H]2OC(C)=O` [YH-25], in the data set on prostate cancer cells, the “inhibitory activity” value is given as “significant decrease in activity”. In addition, the IC50 in the data set with C4-2B (Homo sapiens) was determined as 593 nM; with C4-2B/ENZR (Homo sapiens) it was 2300 nM.
On to `C=C(C)C12OC3(c4ccccc4)OC1C1C(O)C(O)(CO)C(O)C4(O)C(=O)C(C)=CC4C1(O3)C(C)C2OC(=O)c1ccccc1` (centres unmarked) [YH-51], for which the “inhibitory activity” value in the data set on prostate cancer cells is “significantly reduced activity”. Also, the IC50 is 2.02 nM in the data set with Vcap-CRPC (Vcap-CRPC cells, MTT); 7.81 nM with C4-2B; 12300 nM with RWPE-1 (setting [3]); 2.51 nM with LNcap (LNcap cells, MTT); 1770 nM in the data set on 22RV1 (setting [4]); 77.4 nM with C4-2B/ENZR.
In the case of `C=C(C)[C@@]12OC3(c4ccccc4)O[C@@H]1[C@@H]1[C@H](O)[C@](Br)(CO)[C@@H](O)[C@]4(O)C(=O)C(C)=C[C@H]4[C@@]1(O3)[C@H](C)[C@H]2OC(=O)c1ccccc1` [YH-52], the “inhibitory activity” value with prostate cancer cells is recorded as “most prominent; also recorded: enhanced activity”. Moreover, in data set [1] (intraperitoneal injection 0.1 mg/kg in combination with ENZ (10 mg/kg)), the “effect in combination with ENZ” value is on record as “significant synergistic effect”. Also, the “efficacy compared to the positive drug enzalutamide (ENZ)” value in data set [1] (intraperitoneal injection 0.1 mg/kg per day, ENZ 10 mg/kg) is given as “greater efficacy”. The “tumor growth in mice” value in data set [2] (oral gavage 0.5 mg/kg per day) and in data set [2] (oral gavage 2 mg/kg per day) was “significantly inhibit tumor growth” in each case. Moreover, the IC50 with RWPE-1 (Homo sapiens, RWPE-1, read-out: Normal cells RWPE-1 (IC50)) is 53600 nM. In the data set with RWPE-1 (compared with prototype compound YH-11), the “toxicity for the normal human prostate cell RWPE-1” value is reported as “significantly reduced toxicity”.
